The structures appear in SMILES notation.

Series [1] in a line: Plasma protein binding by equilibrium dialysis. It is filed as in vitro ADME. As to conditions: mouse plasma, 10 μM compound; read-out: PPB (mouse) % bound (converted). On the procedure: Mouse plasma protein binding (PPB) was determined by equilibrium dialysis with 10 μM compound over 4 h at 37 °C. Compound recoveries were determined by HPLC-MS/MS.
The target of series [2] is T1, MMP-2 (Homo sapiens, UniProt P08253).
T1 sequence (P08253 110-660): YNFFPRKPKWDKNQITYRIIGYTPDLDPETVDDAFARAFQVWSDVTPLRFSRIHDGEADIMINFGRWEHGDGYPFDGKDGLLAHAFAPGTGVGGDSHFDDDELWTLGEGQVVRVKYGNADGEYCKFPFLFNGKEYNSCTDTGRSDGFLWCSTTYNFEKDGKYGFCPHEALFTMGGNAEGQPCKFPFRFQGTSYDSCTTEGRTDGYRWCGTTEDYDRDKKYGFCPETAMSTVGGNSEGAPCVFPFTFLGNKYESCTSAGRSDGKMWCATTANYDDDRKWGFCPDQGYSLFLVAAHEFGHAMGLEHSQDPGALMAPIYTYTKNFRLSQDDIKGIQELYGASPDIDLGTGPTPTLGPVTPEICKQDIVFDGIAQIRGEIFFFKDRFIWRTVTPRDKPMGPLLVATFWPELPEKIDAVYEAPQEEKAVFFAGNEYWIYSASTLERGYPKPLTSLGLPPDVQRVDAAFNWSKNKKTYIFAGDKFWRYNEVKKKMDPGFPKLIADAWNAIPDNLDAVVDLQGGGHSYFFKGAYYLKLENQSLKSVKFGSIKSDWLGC
The series is described as follows: MMP-2 selectivity assay. In kind it is biochemical. As to conditions: human MMP-2. How it is done: Selectivity of compound inhibition was evaluated against other proteases at concentrations between 0.4 and 200 μM. Activity against rabbit angiotensin-converting enzyme (ACE, Sigma) was assessed using 10 μM fluorogenic substrate Abz-Phe-Arg-Lys(Dnp)-P (Enzo Life Sciences) in 100 mM Tris-HCl pH 7, 50 mM NaCl, 10 μM Zn SO4. Activity against human matrix metalloproteases (MMP)-2 and MMP-9 was assessed in 50 mM HEPES pH 7.5, 10 mM CaCl2, 0.01% Triton X-100 using 4 μM fluorogenic substrate Mca-Pro-Leu-Gly-Leu-Dpa-Ala-Arg-NH2 (Enzo Life Sciences). Activity against MMP-1 and MMP-13 was assessed in 25 mM HEPES pH 7.5, 100 mM NaCl, 100 mM CaCl2, 0.0005% Brij using 7.5 μM fluorogenic substrate Mca-Lys-Pro-Leu-Gly-Leu-Dpa-Ala-Arg-NH2 (Sigma) for MMP-1 and 1.25 μM fluorogenic substrate Mca-Pro-Cha-Gly-Nva-His-Ala-Dpa-NH2 (Millipore) for MMP-13. Activity against human neutrophil elastase (HNE, Enzo Life Sciences) was assessed in 100 mM HEPES pH 7.5, 500 mM NaCl, 0.01% of Triton X-100 using 100 μM fluorogenic substrate MeOSuc-AAPV-AMC (Enzo Life Sciences).

In series [3] the target is T2, LasB (P. aeruginosa PAO1 culture supernatant) (Pseudomonas aeruginosa, UniProt P14756).
T2 construct: The mature LasB protein is a 33 kDa metalloprotease, which is secreted from P. aeruginosa; endogenous in cells; host or cells: P. aeruginosa PAO1 culture supernatant, filtered and dialyzed
T2 sequence (P14756 198-498): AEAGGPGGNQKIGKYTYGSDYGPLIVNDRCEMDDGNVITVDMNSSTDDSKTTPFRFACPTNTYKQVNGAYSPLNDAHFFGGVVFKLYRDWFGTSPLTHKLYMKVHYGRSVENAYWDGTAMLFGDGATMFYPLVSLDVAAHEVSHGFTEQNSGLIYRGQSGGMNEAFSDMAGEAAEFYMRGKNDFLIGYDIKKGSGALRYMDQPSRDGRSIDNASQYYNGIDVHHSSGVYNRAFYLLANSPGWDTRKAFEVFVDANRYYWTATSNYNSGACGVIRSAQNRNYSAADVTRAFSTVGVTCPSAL
The series is described as follows: Elastin Congo Red (ECR) assay, elastin hydrolysis by dialyzed PAO1 culture supernatant. As to conditions: 25 μM inhibitor. In kind it is biochemical. An excerpt: This was chosen as the starting point for a medicinal chemistry-driven lead optimization program aiming to improve potency and solubility whilst retaining selectivity against host metalloenzymes. All synthesized compounds were initially assessed in a fluorimetric assay measuring hydrolysis of a fluorogenic substrate Abz-Ala-Gly-Leu-Ala-4-nitrobenzylamide (Abz-AGLA-Nba) by purified LasB and IC50 values determined (Tables 1 and 2). Inhibition of elastin hydrolytic activity was confirmed using an orthogonal assay measuring hydrolysis of Elastin Congo Red (ECR) complex by LasB prepared directly from a P. aeruginosa culture supernatant (Tables 1 and 2). […] Aqueous solubility was determined for most compounds (Tables 1 and 2).
Inhibition of elastin hydrolysis by native LasB, secreted in P. aeruginosa culture supernatants, was measured using the Elastin Congo Red (ECR) assay. Culture supernatants from P. aeruginosa strain PAO1, grown in LB medium at 37 °C for 24 h, were filtered and dialyzed against 50 mM Tris-HCl pH 7.4, 2.5 mM CaCl2 solution at 4 °C and supplemented with 0.01%Triton X-100, 10 mg/mL ECR (Sigma) and 25 μM inhibitor compounds. The reaction mixture was incubated for 16 h at 37 °C with shaking before centrifugation and recovery of the supernatant and measurement of solubilized congo red by absorbance (OD495) using an EnSight multimode plate reader (PerkinElmer).

The target of series [4] is T3, LasB N68S, T120I, A122T, S241G, S436L (Pseudomonas aeruginosa, UniProt P14756, S241G/S436L).
T3 construct: Most changes were identified in the mature peptide, however some occurred in the propeptide domain; endogenous in cells; host or cells: P. aeruginosa clinical CF isolate, culture supernatant
T3 sequence (P14756 198-498, looked up, stated change not applied): as the sequence (P14756 198-498) above
In words: LasB variant inhibition, culture supernatant: N68S, T120I, A122T, S241G, S436L. In kind it is biochemical, P. aeruginosa. From the text:
Compounds 12 and 16 were discovered as a result of optimizing potency against the LasB protein expressed from the wild-type (WT) reference strain P. aeruginosa PAO1. To understand the relative prevalence of the WT LasB protein versus other variants in clinical respiratory P. aeruginosa strains, the full-length lasB gene was amplified by PCR from 255 clinical isolates (obtained from CF sputum samples). […] Most changes were identified in the mature peptide, however some occurred in the propeptide domain, which could affect LasB processing (marked in italics in Table 4).
LasB inhibition assays were performed using purified LasB enzyme (1 ng/well) for compound screening or using culture supernatants (prepared as described in the ECR assay) for testing LasB variants. Hydrolysis of the fluorogenic peptide substrate 2-aminobenzoyl-Ala-Gly-Leu-Ala-4-nitrobenzylamide (Abz-AGLA-Nba; Peptide International) in 50 mM Tris-HCl (pH 7.4), supplemented with 2.5 mM CaCl2 was followed using an Envision microplate reader (PerkinElmer) at 315 nm excitation and 430 nm emission. […] IC50 values were determined from Hill plots using Dotmatics Studies ELN software. For the mechanism of inhibition studies, hydrolysis rates were measured in the presence of variable concentrations of substrate and inhibitor, and the inhibition constant (Ki) was determined using Dixon plot analysis.[31]

`COc1cc2sc(CNC(=O)C3(CC(=O)O)Cc4cc(F)c(F)cc4C3)nc2cc1OCCC[N+](C)(CCO)CCO` [Compound 16]: the fraction unbound at 4 h, 10 μM in series [1] was 0.18. Also, the values for the 50% inhibitory concentration (IC50) in series [2] and in series [4] were above 200000 nM and 253 nM, respectively. Also, the “Elastin hydrolysis @ 25 μM (% inh)” value in series [3] amounted to 73 % inh.

With `COc1cc2sc(CNC(=O)C3(CC(=O)O)Cc4ccccc4C3)nc2cc1OCCC[N+](C)(C)C` [Compound 12], the fraction unbound at 4 h, 10 μM in series [1] is 0.24. The results for the IC50 in series [2] and in series [4] were above 200000 nM and 267 nM, respectively. Further, the “Elastin hydrolysis @ 25 μM (% inh)” value in series [3] is reported as 64 % inh.

Values taken from publication PMC9926489, “Chemical Optimization of Selective Pseudomonas aeruginosa LasB Elastase Inhibitors and Their Impact on LasB-Mediated Activation of IL-1β in Cellular and Animal Infection Models” (ACS Infectious Diseases, 2023).
